Test results as given in US20250057844A1, “METHODS OF TREATING NEOPLASTIC DISEASES” (SILLAJEN, INC., priority 2021, published 2025).
Read-outs that look alike come from different tables or passages of the source.

Columns and labels:
[1] = Maximum tolerated dose (MTD) in mice; settings: mouse, in vivo
[2] = First PK study: single oral dose, two formulations; format: in vivo, female Swiss Albino mice; settings: for Tmax / bioavailability / AUC(0-inf) / AUC(0-t) / Cmax / half-life: Swiss Albino, mouse, plasma; for bioavailability: based on i.v. exposure; for AUC(0-t): AUC0-24 h; for Cmax: mean (SD); for half-life: read-out: Apparent T1/2 (converted)
Method: Plasma samples were collected on day 1 for Groups 1 to 6. Formulation 1 consisted of DMSO, cremophor EL, and 5% mannitol in water (10/10/80; v/v/v). Formulation 2 consisted of ethanol, PEG 400, and citric acid 20 mM (10/10/80; v/v/v). […] In each of the three studies blood was collected via the sephanous vein into K2-EDTA tubes kept on ice until centrifugation at 4° C. Plasma was stored at ap-proximately-80° C. […] PK parameters were calculated using Phoenix® WinNonLin 6.4. PK analysis was based on sparse sampling.

biotinylated PLK1 = biotinylated PLK1 (Homo sapiens, UniProt P53350); experiment: Target residence time assay (Biacore T200 surface plasmon resonance), PLK1; format: binding; settings: SPR, 22° C.
Chain of biotinylated PLK1 (P53350 whole entry, the tested form may be a part): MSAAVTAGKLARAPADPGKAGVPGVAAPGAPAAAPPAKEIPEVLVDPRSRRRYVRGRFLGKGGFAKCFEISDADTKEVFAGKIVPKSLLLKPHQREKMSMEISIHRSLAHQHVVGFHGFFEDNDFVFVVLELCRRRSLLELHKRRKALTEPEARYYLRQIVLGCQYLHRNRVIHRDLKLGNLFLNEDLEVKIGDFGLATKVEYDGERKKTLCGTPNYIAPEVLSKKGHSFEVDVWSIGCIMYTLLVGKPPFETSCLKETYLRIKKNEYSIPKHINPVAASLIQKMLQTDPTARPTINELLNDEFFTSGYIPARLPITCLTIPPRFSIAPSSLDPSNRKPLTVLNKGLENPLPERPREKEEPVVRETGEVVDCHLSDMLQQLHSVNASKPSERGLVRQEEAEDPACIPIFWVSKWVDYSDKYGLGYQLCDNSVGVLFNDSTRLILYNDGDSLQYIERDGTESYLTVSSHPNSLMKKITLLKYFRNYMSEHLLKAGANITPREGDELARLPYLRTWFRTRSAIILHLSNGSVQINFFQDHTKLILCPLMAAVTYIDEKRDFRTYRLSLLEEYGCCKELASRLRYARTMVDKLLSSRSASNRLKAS
Method: The affinity, i.e. the equilibrium dissociation constant (KD) ([…]), of the compound of formula (I) against TTK and PLK1 were determined using a Biacore T200TM surface plasmon resonance instrument using recombinant expressed TTK kinase domain (amino acids 519-808) or biotinylated PLK1. The immobilization of TTK was performed as described in Maia et al. Annals of Oncology, 2015; 26:2180-2192. The immobilization of biotinylated PLKI was performed as described in Willemsen-Seegers et al. Journal of Molecular Biology, 2017; 429:574-586. The subsequent single cycle kinetic assays were performed at 22° C. using a compound concentration gradient of 1, 3.6, 10, 31.6 and 100 nM for TTK and 10, 31.6, 100, 316 and 1000 nM for PLK1, a contact time of 100 s and a flow rate of […]. The dissociation period was 1200-1800 s and a correction for an unstable surface using a blank run with buffer was performed.

[3] = female, po, 5 mg/kg, single oral 5 mg/kg, Formulation 1, female mice
[4] = female, po, 5 mg/kg, single oral 5 mg/kg, Formulation 2, female mice
[5] = female, po, 7.5 mg/kg, single oral 7.5 mg/kg, Formulation 1, female mice
[6] = female, po, 7.5 mg/kg, single oral 7.5 mg/kg, Formulation 2, female mice
[7] = female, po, 10 mg/kg, single oral 10 mg/kg, Formulation 1, female mice
[8] = female, po, 10 mg/kg, single oral 10 mg/kg, Formulation 2, female mice
[9] = single oral 5 mg/kg, Formulation 1, female mice
[10] = single oral 5 mg/kg, Formulation 2, female mice
[11] = single oral 7.5 mg/kg, Formulation 1, female mice
[12] = single oral 7.5 mg/kg, Formulation 2, female mice
[13] = single oral 10 mg/kg, Formulation 1, female mice
[14] = single oral 10 mg/kg, Formulation 2, female mice

`COc1cc(N2CCNCC2)ccc1Nc1ncc2c(n1)-n1ccc(C(=O)Nc3c(C)cccc3C)c1CC2` [compound of formula (I)] gave an MTD ([1]; iv, 2QW) of 12.5 mg/kg, an MTD ([1]; iv, QW) of 25 mg/kg and an MTD ([1]; po, orally daily) of 7.5 mg/kg. It also gave a Tmax ([2]; single oral 5 mg/kg, Formulation 1, female mice, read-out: Tmax) of 4 h, a Tmax ([2]; single oral 7.5 mg/kg, Formulation 1, female mice, read-out: Tmax) of 4 h and a Tmax ([2]; single oral 10 mg/kg, Formulation 1, female mice, read-out: Tmax) of 4 h. The bioavailability ([2]; female, oral, single dose administration, read-out: oral bioavailability) was 76 to 96%, the AUC(0-inf) [2, 3] was 1100 ng·h/mL and the AUC(0-t) [2, 3] was 1080 ng·h/mL. The bioavailability ([2]; female, po, 5 mg/kg, single oral 5 mg/kg, Formulation 1, female mice, read-out: F (%)) was 76%, the Cmax [2, 3] was 108 ng/mL and the half-life [2, 3] was 3.27 h. The AUC(0-inf) [2, 4] was 1130 ng·h/mL, the AUC(0-t) [2, 4] was 1120 ng·h/mL and the bioavailability ([2]; female, po, 5 mg/kg, single oral 5 mg/kg, Formulation 2, female mice, read-out: F (%)) was 78%. For the same compound, the Cmax [2, 4] was 103 ng/mL, the half-life [2, 4] was 3.29 h and the AUC(0-inf) [2, 5] was 1660 ng·h/mL. The AUC(0-t) [2, 5] was 1650 ng·h/mL, the bioavailability ([2]; female, po, 7.5 mg/kg, single oral 7.5 mg/kg, Formulation 1, female mice, read-out: F (%)) was 77% and the Cmax [2, 5] was 164 ng/mL. For the same compound, the half-life [2, 5] was 3.23 h, the AUC(0-inf) [2, 6] was 1910 ng·h/mL and the AUC(0-t) [2, 6] was 1880 ng·h/mL. It also gave a bioavailability ([2]; female, po, 7.5 mg/kg, single oral 7.5 mg/kg, Formulation 2, female mice, read-out: F (%)) of 88%, a Cmax [2, 6] of 172 ng/mL and a half-life [2, 6] of 3.51 h. It also gave an AUC(0-inf) [2, 7] of 2480 ng·h/mL, an AUC(0-t) [2, 7] of 2430 ng·h/mL and a bioavailability ([2]; female, po, 10 mg/kg, single oral 10 mg/kg, Formulation 1, female mice, read-out: F (%)) of 86%. It also gave a Cmax [2, 7] of 210 ng/mL, a half-life [2, 7] of 3.66 h and an AUC(0-inf) [2, 8] of 2770 ng·h/mL. For the same compound, the AUC(0-t) [2, 8] was 2730 ng·h/mL, the bioavailability ([2]; female, po, 10 mg/kg, single oral 10 mg/kg, Formulation 2, female mice, read-out: F (%)) was 96% and the Cmax [2, 8] was 276 ng/mL. For the same compound, the half-life [2, 8] was 3.43 h, the Tmax ([2]; female, single oral administration, 5-10 mg/kg, both formulations, read-out: median Tmax) was 4 h and the “% extrapolated” value [2, 9] was 1.11%. The AUCinf/Dose [2, 9] was 220 ng·h/mL/mg/kg, the AUClast/Dose [2, 9] was 216 (h*ng/mL)/(mg/kg) and the Cmax/Dose [2, 9] was 21.6 (ng/mL)/(mg/kg). The “% extrapolated” value [2, 10] was 1.14%, the AUCinf/Dose [2, 10] was 226 ng·h/mL/mg/kg and the AUClast/Dose [2, 10] was 224 (h*ng/mL)/(mg/kg). The Cmax/Dose [2, 10] was 20.6 (ng/mL)/(mg/kg), the “% extrapolated” value [2, 11] was 1.06% and the AUCinf/Dose [2, 11] was 221 ng·h/mL/mg/kg. The AUClast/Dose [2, 11] was 220 (h*ng/mL)/(mg/kg), the Cmax/Dose [2, 11] was 21.9 (ng/mL)/(mg/kg) and the “% extrapolated” value [2, 12] was 1.67%. The AUCinf/Dose [2, 12] was 255 ng·h/mL/mg/kg, the AUClast/Dose [2, 12] was 251 (h*ng/mL)/(mg/kg) and the Cmax/Dose [2, 12] was 22.9 (ng/mL)/(mg/kg). For the same compound, the “% extrapolated” value [2, 13] was 1.9%, the AUCinf/Dose [2, 13] was 248 ng·h/mL/mg/kg and the AUClast/Dose [2, 13] was 243 (h*ng/mL)/(mg/kg). For the same compound, the Cmax/Dose [2, 13] was 21 (ng/mL)/(mg/kg), the “% extrapolated” value [2, 14] was 1.47% and the AUCinf/Dose [2, 14] was 277 ng·h/mL/mg/kg. The AUClast/Dose [2, 14] was 273 (h*ng/mL)/(mg/kg), the Cmax/Dose [2, 14] was 27.6 (ng/mL)/(mg/kg) and the “target-residency on PLK1” value (biotinylated PLK1) was “just a few minutes”.
